# According to paper PMC5408667, “A structural and functional analogue of a Bowman–Birk-type protease inhibitor from Odorrana schmackeri” (Bioscience Reports, 2017):
# “Also recorded” adds a separate entry of the source. Bridge positions count the residues as written; N and C are the ends. Peptide text beside a SMILES is read from it.
# T1: Trypsin (Bos taurus, UniProt P00760)
# T1 construct: gene PRSS1
# T1 sequence (P00760 24-246): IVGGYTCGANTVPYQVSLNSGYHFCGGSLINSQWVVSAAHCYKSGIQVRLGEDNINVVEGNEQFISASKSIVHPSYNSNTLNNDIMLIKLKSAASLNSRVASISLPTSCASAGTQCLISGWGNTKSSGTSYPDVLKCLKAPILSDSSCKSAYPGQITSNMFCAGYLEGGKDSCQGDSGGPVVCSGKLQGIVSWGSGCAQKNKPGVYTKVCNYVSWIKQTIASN
# Experiments:
# [1] = Determination of peptide secondary structures using CD analysis; type: physicochemical
# Protocol: CD measurements were performed with a JASCO J-815 CD spectrometer (Jasco, Essex, U.K.) at room temperature (20–25°C). Each peptide was dissolved in (a) water and (b) 50% (v/v) trifluoroethanol (TFE)-water to reach a concentration of 50 μM before being transferred and measured in a 0.1 cm high precision quartz cell (Hellma Analytics, Essex, U.K.). The wavelength used in CD spectrometer was from 190 to 240 nm with a scanning speed of 200 nm/min, bandwidth and data pitch are 1 and 0.5 nm respectively. CD data are expressed as the mean molar ellipticity [θ] in deg.cm^2.dmol^−1 in corresponding wavelength (nm), which is calculated using the measured ellipticity (θ, in medg) with the equation [θ] = θ/(10 × c × l), ‘c’ refers to the molar concentration of the sample (mol/l) and the term ‘l’ is the cuvette path length (cm). DichroWeb webserver (http://dichroweb.cryst.bbk.ac.uk/html/home.shtml) was used to estimate the α-helix and β-sheet content.
# Figure 8 Circular dichroism spectra of OSTI and [Phe^9]-OSTI The CD spectra recorded for OSTI and [Phe^9]-OSTI (100 μM) in (A) 10 mM ammonium acetate water solution and (B) 50% 2,2,2-TFE/10 mM ammonium acetate water solution.
# Tryptase = target: T2, Tryptase (Homo sapiens, UniProt Q15661); assay: Tryptase inhibition assay; type: biochemical
# T2 construct: purchased Calbiochem, U.K
# Protocol: Tryptase (2.5 μl from 1 mg/ml stock solution, Calbiochem, U.K.), was added to the wells of a microtitre plate containing substrate (Boc-Phe-Ser-Arg-NHMec, obtained from Bachem, U.K.) (50 μM) and synthetic peptide replicates (0.5, 1, 2 and 4 mM) in tryptase assay buffer, pH 7.6, containing 0.05 M Tris, 0.15 M NaCl and 0.2% (w/v) PEG 6000 (final volume 210 μl).
# For modest binding inhibition, we first calculated the IC50 from a plot of % inhibition against inhibitor concentration [I]. The data points were fitted to the resulting curve, by non-linear regression analysis, using GraphPad Prism. The IC50 values were then converted into Ki values using the eqn (3), to account for the presence of competing substrate [15]. (3) Ki = IC50/{1 + ([S]/KM)}
# In inhibition studies with both these proteases, their respective substrates were used at a fixed concentration [S] of 50 μM. […] The determination of these KM values was carried out using identical buffer and temperature conditions (37°C) as those employed in the inhibition studies with the two synthetic amphibian peptides.
# Trypsin = target: T1, Trypsin; assay: Trypsin inhibition assay (synthetic peptides, Morison plot); type: biochemical; settings: substrate Phe-Pro-Arg-NHMec 50 μM, 37°C
# Protocol: (§1) Trypsin (10 μl from 0.1 μM stock solution in 1 mM HCl), was added to the wells of a microtitre plate containing substrate (Phe-Pro-Arg-NHMec) (50 μM) and synthetic peptide replicates (0.1–100 μM) in 10 mM phosphate buffer, pH 7.4, containing 2.7 mM KCl and 137 mM NaCl (final volume 210 μl).
# (§2) Each determination was carried out in triplicate. The rate of hydrolysis of substrate was monitored continuously, at 37°C, by measuring the rate of increase in fluorescence due to production of 7-amino-4-methylcoumarin (NH2Mec) at 460 nm (excitation 360 nm) in a CytoFluor® multi-well plate reader Series 4000 spectrofluorimeter.
# For potent, slow, tight-binding inhibition, the Morison equation was used to determine the inhibition constant Ki(app) by fitting the kinetic data to the equation below: (1) Vi/V0 = 1 − {[E]0 + [I] + Ki(app) − ([E]0 + [I] + Ki(app))^2−4 × [E]0 × [I]/2 × [E]0} […]
# This kinetic treatment was used for the inhibition of trypsin by OSTI. Since the inhibition studies were performed in the presence of competing substrate, the true Ki value was calculated from Ki(app) using eqn (2). For trypsin, a fixed substrate concentration [S] of 50 μM was used, for these inhibition studies and in a separate experiment (performed using identical buffer and temperature conditions),a value of 73.29 μM was determined for the Michaelis constant KM, for substrate hydrolysis in the absence of OSTI. […]
# Chymotrypsin = Chymotrypsin (Bos taurus, UniProt P00766); assay: Chymotrypsin inhibition assay; type: biochemical
# Protocol: as §1, with “Chymotrypsin” for “Trypsin”, “HCl)” for “HCl),”, “(Succinyl–Ala–Ala–Pro–Phe–NHMec, obtained from Bachem, U.K.)” for “(Phe-Pro-Arg-NHMec)”
# as §2
# For modest binding inhibition, we first calculated the IC50 from a plot of % inhibition against inhibitor concentration [I]. The data points were fitted to the resulting curve, by non-linear regression analysis, using GraphPad Prism. The IC50 values were then converted into Ki values using the eqn (3), to account for the presence of competing substrate. (3) Ki = IC50/{1 + ([S]/KM)}
# This kinetic treatment was applied to the inhibition of tryptase by OSTI and chymotrypsin by [Phe^9]-OSTI. […] The Michaelis constant KM for tryptase against Boc-Phe-Ser-Arg-NHMec was determined to be 227.2 μM, while KM for chymotrypsin against Succinyl–Ala–Ala–Pro–Phe–NHMec was determined to be 38.4 μM. […]
# chymase = settings: Lineweaver–Burk double-reciprocal plot; ref [24]; cited from earlier work
# Excerpt: Tryptase and chymase are atypical serine proteases that are synthesized, stored and released by mast cells. Due to their close involvement in the pathogenesis of inflammation and some other diseases, there have been reports of BBIs possibly having utility in the treatment of such conditions.
# [2] = 50% TFE-water, CD 190–240 nm, room temperature (20–25°C), DichroWeb
# [3] = aqueous solution, CD 190–240 nm, room temperature (20–25°C), DichroWeb
# T2 sequence (Q15661 31-275): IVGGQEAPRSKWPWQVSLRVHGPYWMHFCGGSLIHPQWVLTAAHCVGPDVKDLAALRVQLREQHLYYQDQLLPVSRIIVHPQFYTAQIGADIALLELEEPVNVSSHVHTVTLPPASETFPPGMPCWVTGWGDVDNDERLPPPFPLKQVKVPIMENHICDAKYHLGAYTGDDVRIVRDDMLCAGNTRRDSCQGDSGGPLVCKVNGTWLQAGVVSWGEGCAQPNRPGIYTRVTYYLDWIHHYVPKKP
molecule,measurement,setting,value
"CC[C@H](C)[C@@H]1NC(=O)[C@H](CO)NC(=O)[C@H](CCCCN)NC(=O)[C@H]([C@@H](C)O)NC(=O)[C@H](Cc2c[nH]c3ccccc23)NC(=O)[C@@H](NC(=O)CNC(=O)[C@H](CCCCN)NC(=O)[C@H](CC(C)C)NC(=O)[C@H](C)NC(=O)[C@H](C)N)CSSC[C@@H](C(=O)N[C@@H](Cc2ccccc2)C(N)=O)NC(=O)[C@@H]2CCCN2C(=O)[C@H](CCCCN)NC(=O)[C@@H]2CCCN2C(=O)[C@@H]2CCCN2C1=O [OSTI, AALKGCWTKSIPPKPCF-amide] (H-AALKGCWTKSIPPKPCF-NH2; disulfide 6-16; N-terminus assumed)",β-sheet secondary structure (in words),"[1]; 50% TFE-water, CD",low percentage of β-sheet secondary structure
same,random coil content,[1]; [2],47%
same,α-helix content,[1]; [2],8%
same,β-sheet content,[1]; [2],45%
same,canonical β-turn motif,"[1]; aqueous solution, CD",did not display canonical β-turn motif
same,random coil content,[1]; [3],42%
same,β-sheet content,[1]; [3],51%
same,tryptase inhibition (in words),"Tryptase; progress curves, OSTI 0–17.4 μM",moderate inhibitor
same,inhibition kinetics / mechanism from progress curves,Trypsin,"reversible, slow-binding kinetics; also recorded: two-step complexing mechanism"
"CC[C@H](C)[C@@H]1NC(=O)[C@H](CO)NC(=O)[C@H](Cc2ccccc2)NC(=O)[C@H]([C@@H](C)O)NC(=O)[C@H](Cc2c[nH]c3ccccc23)NC(=O)[C@@H](NC(=O)CNC(=O)[C@H](CCCCN)NC(=O)[C@H](CC(C)C)NC(=O)[C@H](C)NC(=O)[C@H](C)N)CSSC[C@@H](C(=O)N[C@@H](Cc2ccccc2)C(N)=O)NC(=O)[C@@H]2CCCN2C(=O)[C@H](CCCCN)NC(=O)[C@@H]2CCCN2C(=O)[C@@H]2CCCN2C1=O [[Phe^9]-OSTI, AALKGCWTFSIPPKPCF-amide] (H-AALKGCWTFSIPPKPCF-NH2; disulfide 6-16)",Ki,"Chymotrypsin; substrate Succinyl–Ala–Ala–Pro–Phe–NHMec 50 μM, 10 mM phosphate buffer pH 7.4, 2.7 mM KCl, 137 mM NaCl, 37°C, from IC50 with KM 38.4 μM, mean ± S.E.M. of three independent experiments, each performed in duplicate",1000 ± 100 nM
"Boc-Phe-Ser-Arg-NHMec [fluorogenic tryptase substrate, reference compound]",Km,"Tryptase; substrate of tryptase, identical buffer and temperature conditions (37°C), read-out: Michaelis constant KM, tryptase",227 µM
"Succinyl–Ala–Ala–Pro–Phe–NHMec [fluorogenic chymotrypsin substrate, reference compound]",Km,"Chymotrypsin; substrate of chymotrypsin, identical buffer and temperature conditions (37°C), read-out: Michaelis constant KM, chymotrypsin",38.4 µM
"soybean BBI: soybean Bowman–Birk protease inhibitor, two-headed protease inhibitor (protein, UniProt P01055 40-110, looked up) Bowman-Birk type proteinase …: DDESSKPCCDQCACTKSNPPQCRCSDMRLNSCHSACKSCICALSYPAQCFCVDITDFCYEPCKPSEDDKEN",mechanism of chymase inhibition,chymase,non-competitive mechanism
